Measurements taken from patent US20100113613A1, “CYCLOHEXANE POLYALCOHOL FORMULATION FOR TREATMENT OF DISORDERS OF PROTEIN AGGREGATION” (WARATAH PHARMACEUTICALS, priority 2006, published 2010).

How the values were obtained:
in vivo [1] = conditions: rat; for kel / Vd: 28 days
Experimental: Plasma PK of a scyllo-cyclohexanehexyl compound in rats was assessed after 28 days oral dosing of 15, 50 and 150 mg/kg, administered twice daily. […] Indeed, at this dose level, the Vdss, clearance and elimination rates appeared to be reduced with repeated dosing. […] As for single doses, the scyllo-cyclohexanehexyl was absorbed rapidly, with mean tmax observed between 1.2 and 1.3 hours post-dose. […] Estimates of MRT were consistent.

in vivo [2] = conditions: dog, po
Experimental: (§1) Three studies were performed to investigate the pharmacokinetics of oral administration of a scyllo-cyclohexanehexyl (Table 1):
Two studies have investigated the single dose PK of oral administration of a scyllo-cyclohexanehexyl in dogs. The 14 day study investigated 18 animals. On Day 1 of this study Cmax and AUC values increased proportionally with dose level of a scyllo-cyclohexanehexyl. […] The extensive brain penetrance of the scyllo-cyclohexanhexyl (see below) may be relevant in this regard.

in vivo [3] = conditions: rat, po
Experimental: as §1
Plasma pharmacokinetics (PK) of a scyllo-cyclohexanehexyl in rats was assessed after single oral doses of 15, 50 and 150 mg/kg. After single oral doses in rats, maximum plasma concentration (Cmax) and exposure (AUC0-t) values increased proportionally with dose level of the scyllo-cyclohexanehexyl. Other parameters were unchanged with dose level. The scyllo-cyclohexanehexyl was absorbed rapidly, with mean tmax observed between 1.0 and 2.2 hours post-dose. […] Estimates of mean residence time (MRT) were consistent. Volumes of distribution (Vdss) were large, indicating wide distribution of scyllo-cyclohexanehexyl in rats.

in vivo [4] = conditions: dog
Experimental: Plasma PK of a scyllo-cyclohexanhexyl in dogs was assessed after 14 days oral dosing of 15, 50 and 150 mg/kg, administered twice daily. As on Day 1 of this study Cmax and AUC values increased proportionally with dose level of scyllo-cyclohexanehexyl. However, dose-normalised exposures appeared to decrease with dose. This contrasts with positive trend observed after acute exposure. […] As for single doses, the scyllo-cyclohexanehexyl was absorbed rapidly, with tmax observed between 1.1 and 1.8 hours post-dose. […] Estimates of MRT were consistent. The Vdss and Cl/F values were similar for all dose levels.

SMILES: OC1C(O)C(O)C(O)C(O)C1O (centres unmarked) [AZD-103, scyllo-inositol]
- kel (in vivo [1]; 15 mg/kg): 0.16 ± 0.03 h⁻¹
- kel (in vivo [1]; 50 mg/kg): 0.21 ± 0.03 h⁻¹
- kel (in vivo [1]; 150 mg/kg): 0.22 ± 0.02 h⁻¹
- AUC(0-inf) (in vivo [1]; po, 15 mg/kg): 195 ± 71.7 µg·h/mL
- AUC(0-t) (in vivo [1]; po, 15 mg/kg): 161 ± 57.7 µg·h/mL
- CL/F at 28 days (in vivo [1]; po, 15 mg/kg): 2.9 mL/min/kg
- Cmax at 28 days (in vivo [1]; po, 15 mg/kg): 28500 ± 4900 ng/mL
- MRT at 28 days (in vivo [1]; po, 15 mg/kg): 6.7 ± 0.6 h
- Tmax (in vivo [1]; po, 15 mg/kg): 1.3 ± 0.5 h
- half-life at 28 days (in vivo [1]; po, 15 mg/kg): 4.4 ± 0.6 h
- Vd (in vivo [1]; po, 15 mg/kg): 1.14 L/kg
- AUC(0-inf) (in vivo [1]; po, 50 mg/kg): 298 ± 82.2 µg·h/mL
- AUC(0-t) (in vivo [1]; po, 50 mg/kg): 271 ± 70.7 µg·h/mL
- CL/F at 28 days (in vivo [1]; po, 50 mg/kg): 5.95 mL/min/kg
- Cmax at 28 days (in vivo [1]; po, 50 mg/kg): 59400 ± 8400 ng/mL
- MRT at 28 days (in vivo [1]; po, 50 mg/kg): 4.9 ± 0.8 h
- Tmax (in vivo [1]; po, 50 mg/kg): 1.2 ± 0.4 h
- half-life at 28 days (in vivo [1]; po, 50 mg/kg): 3.3 ± 0.5 h
- Vd (in vivo [1]; po, 50 mg/kg): 1.73 L/kg
- AUC(0-inf) (in vivo [1]; po, 150 mg/kg): 615 ± 129 µg·h/mL
- AUC(0-t) (in vivo [1]; po, 150 mg/kg): 573 ± 128 µg·h/mL
- CL/F at 28 days (in vivo [1]; po, 150 mg/kg): 8.41 mL/min/kg
- Cmax (in vivo [1]; po, 150 mg/kg): 171000 ± 79900 ng/mL
- MRT at 28 days (in vivo [1]; po, 150 mg/kg): 4.6 ± 0.8 h
- Tmax (in vivo [1]; po, 150 mg/kg): 1.2 ± 0.4 h
- half-life at 28 days (in vivo [1]; po, 150 mg/kg): 3.1 ± 0.3 h
- Vd (in vivo [1]; po, 150 mg/kg): 2.34 L/kg
- AUC(0-inf) (in vivo [2]; 15 mg/kg): 23.8 ± 4.5 µg·h/mL
- AUC(0-t) (in vivo [2]; 15 mg/kg): 22.6 ± 4.5 µg·h/mL
- CL/F (in vivo [2]; 15 mg/kg): 3.04 mL/min/kg
- Cmax (in vivo [2]; 15 mg/kg): 10000 ± 2500 ng/mL
- MRT (in vivo [2]; 15 mg/kg): 3.5 ± 0.8 h
- Tmax (in vivo [2]; 15 mg/kg): 1.7 ± 0.5 h
- VdSS (in vivo [2]; 15 mg/kg): 0.6325 ± 0.2371 L/kg
- half-life (in vivo [2]; 15 mg/kg): 2 ± 0.8 h
- kel (in vivo [2]; 15 mg/kg): 0.4 ± 0.2 h⁻¹
- AUC(0-inf) (in vivo [2]; 50 mg/kg): 116 ± 22.8 µg·h/mL
- AUC(0-t) (in vivo [2]; 50 mg/kg): 114 ± 22.9 µg·h/mL
- CL/F (in vivo [2]; 50 mg/kg): 2.07 mL/min/kg
- Cmax (in vivo [2]; 50 mg/kg): 47400 ± 12700 ng/mL
- MRT (in vivo [2]; 50 mg/kg): 2.9 ± 0.3 h
- Tmax (in vivo [2]; 50 mg/kg): 1.2 ± 0.4 h
- VdSS (in vivo [2]; 50 mg/kg): 0.3659 ± 0.1219 L/kg
- half-life (in vivo [2]; 50 mg/kg): 2.1 ± 0.3 h
- kel (in vivo [2]; 50 mg/kg): 0.3 ± 0.04 h⁻¹
- AUC(0-inf) (in vivo [2]; 150 mg/kg): 455 ± 121 µg·h/mL
- AUC(0-t) (in vivo [2]; 150 mg/kg): 450 ± 118 µg·h/mL
- CL/F (in vivo [2]; 150 mg/kg): 1.56 mL/min/kg
- Cmax (in vivo [2]; 150 mg/kg): 124000 ± 22700 ng/mL
- MRT (in vivo [2]; 150 mg/kg): 3.3 ± 0.3 h
- Tmax (in vivo [2]; 150 mg/kg): 2.2 ± 0.4 h
- VdSS (in vivo [2]; 150 mg/kg): 0.3074 ± 0.0744 L/kg
- half-life (in vivo [2]; 150 mg/kg): 1.7 ± 0.2 h
- kel (in vivo [2]; 150 mg/kg): 0.4 ± 0.05 h⁻¹
- AUC(0-inf) (in vivo [3]; 15 mg/kg): 41.9 ± 11.9 µg·h/mL
- AUC(0-t) (in vivo [3]; 15 mg/kg): 39.7 ± 11.3 µg·h/mL
- CL/F (in vivo [3]; 15 mg/kg): 12.8 mL/min/kg
- Cmax (in vivo [3]; 15 mg/kg): 13200 ± 2000 ng/mL
- MRT (in vivo [3]; 15 mg/kg): 3.7 ± 0.5 h
- Tmax (in vivo [3]; 15 mg/kg): 1 h
- Vd (in vivo [3]; 15 mg/kg): 2.82 L/kg
- half-life (in vivo [3]; 15 mg/kg): 2.7 ± 0.6 h
- kel (in vivo [3]; 15 mg/kg): 0.27 ± 0.07 h⁻¹
- AUC(0-inf) (in vivo [3]; 50 mg/kg): 169 ± 31.8 µg·h/mL
- AUC(0-t) (in vivo [3]; 50 mg/kg): 163 ± 29 µg·h/mL
- CL/F (in vivo [3]; 50 mg/kg): 10.1 mL/min/kg
- Cmax (in vivo [3]; 50 mg/kg): 45300 ± 7100 ng/mL
- MRT (in vivo [3]; 50 mg/kg): 3.6 ± 0.6 h
- Tmax (in vivo [3]; 50 mg/kg): 1.5 ± 0.5 h
- Vd (in vivo [3]; 50 mg/kg): 2.13 L/kg
- half-life (in vivo [3]; 50 mg/kg): 2.4 ± 0.2 h
- kel (in vivo [3]; 50 mg/kg): 0.29 ± 0.02 h⁻¹
- AUC(0-inf) (in vivo [3]; 150 mg/kg): 552 ± 154 µg·h/mL
- AUC(0-t) (in vivo [3]; 150 mg/kg): 537 ± 154 µg·h/mL
- CL/F (in vivo [3]; 150 mg/kg): 9.55 mL/min/kg
- Cmax (in vivo [3]; 150 mg/kg): 131000 ± 54800 ng/mL
- MRT (in vivo [3]; 150 mg/kg): 3.9 ± 0.7 h
- Tmax (in vivo [3]; 150 mg/kg): 2.2 ± 1.5 h
- Vd (in vivo [3]; 150 mg/kg): 2.24 L/kg
- half-life (in vivo [3]; 150 mg/kg): 2.1 ± 0.2 h
- kel (in vivo [3]; 150 mg/kg): 0.33 ± 0.03 h⁻¹
- kel (in vivo [4]; 15 mg/kg): 0.2 ± 0.08 h⁻¹
- kel (in vivo [4]; 50 mg/kg): 0.2 ± 0.1 h⁻¹
- kel (in vivo [4]; 150 mg/kg): 0.3 ± 0.04 h⁻¹
- AUC(0-inf) (in vivo [4]; po, 15 mg/kg): 95.2 ± 18.6 µg·h/mL
- AUC(0-t) (in vivo [4]; po, 15 mg/kg): 75.2 ± 9.4 µg·h/mL
- CL/F (in vivo [4]; po, 15 mg/kg): 0.698 mL/min/kg
- Cmax (in vivo [4]; po, 15 mg/kg): 16400 ± 4500 ng/mL
- MRT (in vivo [4]; po, 15 mg/kg): 7.4 ± 1.5 h
